Here are results for 15 compounds from BindingDB's records for doi:10.1021/jm00144a025 (1982).

Usually IC50 stands for the concentration needed to halve the response being measured. A high value points to weaker potency.

The target of assay [1] is serotonin transporter (Mus musculus). The assay is described as follows: In vitro inhibition of accumulation of [14C]5-HT (5-HT) in mouse brain slices.
Assay [2] deals with norepinephrine transporter (Mus musculus). The assay is described as follows: In vitro inhibition of accumulation of (-)-[3H]Norepinephrine (NA) in mouse brain slices.

Consider `CNC/C=C(\c1cccnc1)c1ccccc1Br` [cis-[3-(2-Bromo-phenyl)-3-pyridin-3-yl-allyl]-methyl-amine;C2H4O4], for which the IC50 in assay [1] is 0.6 µM; in assay [2], 0.3 µM.

Take `COc1ccc(/C(=C/CN(C)C)c2cccnc2)cc1` [cis-[3-(4-Methoxy-phenyl)-3-pyridin-3-yl-allyl]-dimethyl-amine;C2H4O4]: the IC50 is 0.8 µM in assay [1] and over 28 µM in assay [2].

`CCNC/C=C(/c1ccc(Br)cc1)c1cccnc1` [cis-[3-(4-Bromo-phenyl)-3-pyridin-3-yl-allyl]-ethyl-amine;C2H4O4]: the IC50 amounted to 2 µM in assay [1] and 26 µM in assay [2].

As to `CN(C)C/C=C(\c1cccnc1)c1cccc(Cl)c1` [cis-[3-(3-Chloro-phenyl)-3-pyridin-3-yl-allyl]-dimethyl-amine;C2H4O4], the half-maximal inhibitory concentration (IC50) was 2.6 µM in assay [1] and 11 µM in assay [2].

For `CN(C)C/C=C(\c1cccnc1)c1ccccc1Br` [cis-[3-(2-Bromo-phenyl)-3-pyridin-3-yl-allyl]-dimethyl-amine;C2H4O4], the IC50 in assay [1] amounted to 4.2 µM; in assay [2], 2.2 µM.

In the case of `Cc1ccc(/C(=C/CN(C)C)c2cccnc2)cc1` [cis -Dimethyl-(3-pyridin-3-yl-3-p-tolyl-allyl)-amine;C2H4O4], the IC50 in assay [1] was 2.4 µM; in assay [2] it was over 29 µM.

Consider `CN(C)C/C=C(/c1ccc(Cl)cc1)c1cccnc1` [cis-[3-(4-Chloro-phenyl)-3-pyridin-3-yl-allyl]-dimethyl-amine;C2H4O4], for which the IC50 was determined as 2.1 µM in assay [1] and 10 µM in assay [2].

With `CN(C)C/C=C(\c1cccnc1)c1cccc(F)c1` [cis-[3-(3-Fluoro-phenyl)-3-pyridin-3-yl-allyl]-dimethyl-amine;C2H4O4], the IC50 in assay [1] came to 1.6 µM; in assay [2], 2.2 µM.

As for `CN(C)C/C=C(/c1ccc(I)cc1)c1cccnc1` [cis-[3-(4-Iodo-phenyl)-3-pyridin-3-yl-allyl]-dimethyl-amine;C2H4O4], the IC50 in assay [1] is 1 µM; in assay [2] it was over 22 µM.

Take `CN(C)C/C=C(/c1ccc(C(F)(F)F)cc1)c1cccnc1` [cis -Dimethyl-[3-pyridin-3-yl-3-(4-trifluoromethyl-phenyl)-allyl]-amine;C2H4O4]: the IC50 in assay [1] came to 2 µM; in assay [2] it was 13 µM.

Turning to `CCCNC/C=C(/c1ccc(Br)cc1)c1cccnc1` [cis-[3-(4-Bromo-phenyl)-3-pyridin-3-yl-allyl]-propyl-amine;C2H4O4], the IC50 in assay [1] is 24 µM; in assay [2], over 24 µM.

With `CNC/C=C(\c1cccnc1)c1ccc(Cl)cc1Cl` [cis-[3-(2,4-Dichloro-phenyl)-3-pyridin-3-yl-allyl]-methyl-amine;C2H4O4], the IC50 in assay [1] was determined as 0.5 µM; in assay [2], 2.3 µM.

As to `CN(C)C/C=C(/c1ccccc1)c1cccnc1` [cis -Dimethyl-(3-phenyl-3-pyridin-3-yl-allyl)-amine;1.5C2H4O4], the results for the IC50 in assay [1] and in assay [2] were 3.7 µM and 27 µM, respectively.

Regarding `CC(C)Oc1ccc(/C(=C/CN(C)C)c2ccncc2)cc1` [cis-[3-(4-Isopropoxy-phenyl)-3-pyridin-4-yl-allyl]-dimethyl-amine;C2H4O4], the IC50 came out at 3.5 µM in assay [1] and 34 µM in assay [2].

Take `CNC/C=C(\c1cccnc1)c1cccc(Br)c1` [cis-[3-(3-Bromo-phenyl)-3-pyridin-3-yl-allyl]-methyl-amine;C2H4O4]: the IC50 came out at 1.4 µM in assay [1] and 0.9 µM in assay [2].
